Measured values taken from patent US9464106B2, “Oligonucleotides useful for detecting and analyzing nucleic acids of interest” (Exiqon A/S, priority 2002, dated 2016).
l = locked nucleic acid (LNA); [5mC] = 5-methylcytosine; d = 2'-deoxy (DNA)

system: yeast HSP78 (YDR258C) sequence; test: Duplex melting temperatures of HSP78 25-mer capture probes (UV spectrophotometer); details: 25-mer capture probe duplex with complementary target; design PM = perfectly matched, MM = single mismatch; DNA, LNA_T (T) or LNA_TC (TC) substituted

Substance | Average duplex melting temp.
12719 (DNA AGACGTACAGCAACAGAAATAGCAG; sugars from the 5' end d5 l1 d13 l1 d5, backbone not given here) [compound 12719] | 65 °C
12720 (DNA TTTGGTAGCACGTCAAGCTTAGTAT; sugars from the 5' end lllddlddddddddddddllddldd, backbone not given here) [compound 12720] | 68.6 °C
12721 (DNA ATAAAGCTGGCAAAAGGTCTCTTTT; sugars from the 5' end dldddddldddddddddldldllld, backbone not given here) [compound 12721] | 67.2 °C
12722 (DNA TTTTTCGGCCAATCGATCTTGAATT; sugars from the 5' end ldllldddddddddddldlldddld, backbone not given here) [compound 12722] | 65.9 °C
12723 (DNA CACTCTAACAGTATCGCCGTTTCTA; sugars from the 5' end dddldldddddddddddddllldld, backbone not given here) [compound 12723] | 69.7 °C
12724 (DNA TCAATGGCCTTGGACCATATAATTG; DNA at ACG, LNA at T, backbone not given here) [compound 12724] | 69.7 °C
12725 (DNA AAAACGACAGCAAAAGGCTTTCTTC; sugars from the 5' end d18 l3 d1 l2 d1, backbone not given here) [compound 12725] | 65.9 °C
12726 (DNA ATTGACCTCAAATCTTTCTTGGATA; sugars from the 5' end dllddddlddddddllldlldddld, backbone not given here) [compound 12726] | 65.1 °C
12727 (DNA CCCAACTTTGTGACGTTTAATAAAA; DNA at ACG, LNA at T, backbone not given here) [compound 12727] | 66.5 °C
12728 (DNA ACCATCATCACCCAACCTTGTGTCG; sugars from the 5' end dlddlddldddddddddlddlddld, [5mC] at 2, 24, backbone not given here) [compound 12728] | 70.2 °C
12729 (DNA CAATGATCGTGTTACGGAAATCAAC; sugars from the 5' end lddlddlldlddddldddddllddd, [5mC] at 1, 8, 15, 22, backbone not given here; further chemistry not fully specified) [compound 12729] | 75.5 °C
12730 (DNA TGGCCTAGGGAAACGGTCAGCTTAC; sugars from the 5' end lddldlddddddddddldddldldd, [5mC] at 4, 21, backbone not given here) [compound 12730] | 75.5 °C
12731 (DNA TTGGAAACATCGCGGTGCGCTTTTT; sugars from the 5' end lldddddlddlddddldldddldld, [5mC] at 8, 11, 18, backbone not given here) [compound 12731] | 72 °C
12732 (DNA GAAACATCGGGGAGCGCTTTTTCAA; sugars from the 5' end ddddldllddddddldddddldldd, [5mC] at 5, 8, 15, 23, backbone not given here) [compound 12732] | 74.8 °C
12733 (DNA GACAGCCTCAGTAAATTGGCCACCA; sugars from the 5' end ddlddldldddddddlldddlddld, [5mC] at 3, 6, 21, 24, backbone not given here) [compound 12733] | 77.4 °C
12734 (DNA CCGATTAAACGACAGACAGTATGCT; sugars from the 5' end llddlldddlddddddlddldldld, [5mC] at 1, 2, 10, 17, 24, backbone not given here) [compound 12734] | 70.2 °C
12735 (DNA ATCAAATAGGAAATCAGCTAAAGCC; sugars from the 5' end dlldddldddddddlddllddddld, [5mC] at 3, 15, 18, 24, backbone not given here) [compound 12735] | 64.6 °C
12736 (DNA GACCTAAGAACAAAAAGCTGGCAAT; sugars from the 5' end ddllldddddlddddddllddlddd, all C 5-methyl, backbone not given here) [compound 12736] | 71.4 °C
12737 (DNA AAATAGCAGCAAAGGCCTCGTCTTG; sugars from the 5' end dddlddlddldddddldlldlddld, [5mC] at 7, 10, 16, 19, backbone not given here) [compound 12737] | 79.3 °C
12738 (DNA ATAGCAGCAATGCCCTCGTCTTGGC; sugars from the 5' end dlddldddddlddddldddldlddd, [5mC] at 5, 20, backbone not given here) [compound 12738] | 71.5 °C

Substance | Average duplex melting temp.
12739 (DNA GCAATGGCCTCGACTTGGCCAACGA; sugars from the 5' end d10 l1 d2 l1 d11, [5mC] at 11, 14, backbone not given here) [compound 12739] | 73.1 °C
12740 (DNA GATGAACTCAGGAGGATAGGATCTT; sugars from the 5' end ddldddllldddddddlddddllld, all C 5-methyl, backbone not given here) [compound 12740] | 70.4 °C
12741 (DNA TCAGTTAGCCAAACCTTCGCTTCAT; sugars from the 5' end dlddlddddlddddddlddlddldd, [5mC] at 2, 10, 20, 23, backbone not given here) [compound 12741] | 70.6 °C
12742 (DNA GTTGCCATGGAGATCAAAATCTGTC; sugars from the 5' end dlddlldlddddddlddddllddld, [5mC] at 5, 6, 15, 21, backbone not given here) [compound 12742] | 61.6 °C
12743 (DNA AGACGTACAGCAACAGAAATAGCAG; sugars from the 5' end dddldldlddlddddddddlddldd, [5mC] at 4, 8, 11, 23, backbone not given here) [compound 12743] | 73.6 °C
12744 (DNA TTTGGTAGCACGTCAAGCTTAGTAT; sugars from the 5' end ldlddlddldlddddddldlddldd, [5mC] at 9, 11, 18, backbone not given here) [compound 12744] | 73.3 °C
12745 (DNA ATAAAGCTGGCATTAGGTCTCTTTT; sugars from the 5' end dlddddllddlddddddllldllld, [5mC] at 7, 11, 19, backbone not given here) [compound 12745] | 74 °C
12746 (DNA TTTTTCGGCCAATCGATCTTGAATT; sugars from the 5' end ldldllddlldddddddldldddld, [5mC] at 6, 9, 10, 18, backbone not given here) [compound 12746] | 71 °C
12747 (DNA CACTCTAACAGTATCGCCGTTTCTA; sugars from the 5' end ldldldddldddddddlddldllld, [5mC] at 1, 3, 5, 9, 17, 23, backbone not given here) [compound 12747] | 75.2 °C
12748 (DNA TCAATGGCCTTGGACCATATAATTG; sugars from the 5' end llddlddldllddddldldlddlld, [5mC] at 2, 8, 16, backbone not given here) [compound 12748] | 74.8 °C
12749 (DNA AAAACGACAGCAAAAGGCTTTCTTC; sugars from the 5' end ddddlddlddlddddddlldlldld, [5mC] at 5, 8, 11, 18, 22, backbone not given here) [compound 12749] | 72 °C
12750 (DNA ATTGACCTCAAATCTTTCTTGGATA; sugars from the 5' end dllddlllldddddlldllldddld, [5mC] at 6, 7, 9, 18, backbone not given here) [compound 12750] | 72.2 °C
12751 (DNA CCCAACTTTGTGACGTTTAATAAAA; sugars from the 5' end llldddllddlddddlllddldddd, [5mC] at 1, 2, 3, backbone not given here) [compound 12751] | 67.6 °C
12752 (DNA ACCATCATCACCCAACTTTGTGTCG; DNA, backbone not given here; further chemistry not fully specified) [compound 12752] | 67.5 °C
12753 (DNA CAATGATCGTGTTACGGAAATCAAC; DNA, backbone not given here; further chemistry not fully specified) [compound 12753] | 64.2 °C
12754 (DNA TGGCCTAGGGAATCGGTCAGCTTAC; DNA, backbone not given here; further chemistry not fully specified) [compound 12754] | 70.1 °C
12755 (DNA TTGGAAACATCGGGGTGCGCTTTTT; DNA, backbone not given here; further chemistry not fully specified) [compound 12755] | 70.8 °C
12756 (DNA GAAACATCGGGGTGCGCTTTTTCAA; DNA, backbone not given here; further chemistry not fully specified) [compound 12756] | 68.7 °C
12757 (DNA GACAGCCTCAGTTAATTGGCCACCA; DNA, backbone not given here; further chemistry not fully specified) [compound 12757] | 70.2 °C
12758 (DNA CCGATTAAACGAGAGACAGTATGCT; DNA, backbone not given here; further chemistry not fully specified) [compound 12758] | 65.4 °C
